Test results from patent publication US20240209456A1, “METHODS AND COMPOSITIONS RELATED TO CELL-CYCLE RNA's” (BETH ISRAEL DEACONESS MEDICAL CENTER, priority 2021, published 2024).
*1 amine or outer side, *2 acyl side, *3 side chain or, on linkers, in order; H or OH if unused. Where a SMILES comes first, the peptide text is derived from it. Bridges are numbered along the chain shown (N, C = ends). Roman numbers before positions name the chains, in order. [ ]: non-standard residue; d: D form. Actinocin(9to1) = Cc1c2oc3c(C)ccc(C(=O)[*:1])c3nc-2c(C(=O)[*:2])c(N)c1=O; NMeV = CN[C@H](C(=O)O)C(C)C; Sar = CNCC(=O)O

System: PU.1 SPEARs
Experiment: qRT-PCR / strand-specific qRT-PCR of PU.1 SPEARs
Type: cell-based, human
Details: HL-60, DRB and ActD, FIG. 10C
Description: Total RNA isolation was carried out and all RNA samples used in this study were treated with DNase I (10 U of DNase I per 3 μg of total RNA; 37° C. for one hour; in the presence of RNase inhibitor). After DNase I treatment, RNA samples were extracted with acidic phenol (pH 4.3) to eliminate any remaining traces of DNA. cDNA syntheses were performed with Random Primers (Invitrogen) or gene-specific primers with Transcriptor Reverse Transcriptase (Roche Applied Science) according to the manufacturer's recommendation. cDNA was purified with a High Pure PCR Product Purification Kit (Roche Applied Science).
Sybr green reaction was performed using iQ Sybr Green supermix (Biorad, Hercules, CA) using the following parameters: 95° C. (10 min), 40 cycles of 95° C. (15 s) and 60° C. (1 min) 72° C. (1 min). TaqMan analysis was performed using Hotstart Probe One-step qRT-PCR master mix (USB) at the following conditions: 50° C. (10 min.), 95° C. (2 min.), and then 40 cycles of 95° C. (15 sec.) and 60° C. (60 sec.). […]

Structure (SMILES) | PU.1 SPEARs level upon transcription inhibitors
Cc1c2oc3c(C)ccc(C(=O)N[C@@H]4C(=O)N[C@H](C(C)C)C(=O)N5CCC[C@H]5C(=O)N(C)CC(=O)N(C)[C@@H](C(C)C)C(=O)O[C@@H]4C)c3nc-2c(C(=O)N[C@@H]2C(=O)N[C@H](C(C)C)C(=O)N3CCC[C@H]3C(=O)N(C)CC(=O)N(C)[C@@H](C(C)C)C(=O)O[C@@H]2C)c(N)c1=O [ActD, Actinomycin D] (I: T[dV]P[Sar][NMeV] / II: T[dV]P[Sar][NMeV]; ester I:1-I:C, II:1-II:C; linker I:N-II:N via Actinocin(9to1)) | negatively affected
OC[C@H]1O[C@@H](n2cnc3cc(Cl)c(Cl)cc32)[C@H](O)[C@@H]1O [DRB, 5,6-Dichlorobenzimidazole 1-β-D-ribofuranoside] | negatively affected
